In PubChem BioAssay (NCI) one finds GI50 and TGI data, which are given here for 43 compounds.

Several values for one entry are separate records, joined by “and”; a condition that tells them apart may be missing. Identical values can stand only once.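 Interpolation was linear, between the two tested concentrations surrounding the appropriate level; five concentrations were tested over 48 hours in 96-well plates. Here, GI50 denotes the concentration required for 50% inhibition of growth. The concentration for full growth arrest is given as TGI.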

In the test the test system is MDA-MB-468 breast. Nature of the test: growth of human tumour cells (NCI), 48 h.
Regarding `Cn1cnc2c(F)c(Nc3ccc(Br)cc3Cl)c(C(=O)NOCCO)cc21`, the GI50 was > 10 µM and 11.9 µM; the TGI is > 10 µM and 71.1 µM.
Regarding `COC(=O)c1c2c(c(C)[n+]([O-])c1C)C(=O)C=C(NCc1ccc(Cl)cc1)C2=O`, the GI50 was 0.223 µM and the TGI worked out at 0.76 µM.
With `c1ccc(-c2nc(Nc3ccc(-c4nc5ccccc5[nH]4)cc3)nc(N3CCOCC3)n2)cc1`, the GI50 is 2.13 µM and the TGI came to 4.39 µM.
The like results for `[N-]=[N+]=Nc1ncc(-c2ccc(C(F)(F)F)cc2)c(NC2CCCCCC2)n1` were, in that order, more than 10 µM and more than 10 µM.
Turning to `COc1ccc(/C=C/C(=O)c2ccc(Nc3ncnc4ccccc34)cc2)cc1OC`, the GI50 is 2.17 µM and the TGI was found to be 7.29 µM.
For `O=[N+]([O-])c1cccc(-c2nc3sccn3c2-c2ccnc(NCCCNS(=O)(=O)c3ccc(F)cc3)n2)c1`, the GI50 is 1.5 µM and the TGI was found to be 7.11 µM.
As to `Nc1nc(-n2cccn2)nc(-n2cccn2)c1Br`, the GI50 is more than 100 µM and the TGI was more than 100 µM.
Consider `Cc1cccc2c3c(sc12)C(c1ccc(Cl)cc1)C(C#N)=C(/N=C/c1ccc(Cl)cc1)O3` (stereo unspecified), for which the GI50 is 0.257 µM and the TGI was found to be 2 µM.
With `COc1ccc(C2CC(=O)Nc3c2c(C)nn3-c2nc3ccccc3[nH]2)cc1` (stereo unspecified), the GI50 was 2.86 µM and the TGI is 12.6 µM.
For the compound `O=C(CNC(=O)c1cccc2ccccc12)Nc1ccccc1Oc1cccc(O)c1`, the GI50 was 3.55 µM and the TGI came to 19.4 µM.
The corresponding values for `O=C(O)C(/C=C/c1ccco1)=N\Nc1nc(-c2ccc(Cl)cc2)cs1` are 10.6 µM and more than 50 µM.
As to `OCCNc1nc(NCCO)nc(Nc2ccc(C3=NN(c4cc(Cl)cc(Cl)c4)C(c4ccc(Cl)cc4)C3)cc2)n1` (stereo unspecified), the GI50 was 1.92 µM and the TGI turned out to be 3.77 µM.
For the compound `CCCCCC(=O)N1c2ccccc2NC2=C(C(=O)CC(c3ccc(OC)c(OC)c3)C2)C1c1ccc(C(F)(F)F)cc1` (stereo unspecified), the GI50 was more than 100 µM and the TGI was more than 100 µM.
In the case of `CCCCCCN1C(=O)/C(=c2\sc3n(c2=O)C2C(NN=3)N(CC)C(=O)N2CC)c2ccccc21` (stereo unspecified), the GI50 is 1.41 µM and the TGI was more than 50 µM.
Turning to `O=C(Nc1ccccc1Cl)c1cnc2ccc(C3CCNCC3)cn12`, the GI50 is 2.13 µM and the TGI was determined as 9.54 µM.
As for `COc1ccc2c(c1)[nH]c(=O)c1c3cccnc3cn21`, the GI50 was 0.133 µM and the TGI was determined as 2.33 µM.
For `COc1cc(N2CCC(N(C)C)CC2)ccc1Nc1ncc(Cl)c(Nc2ccccc2P(C)(C)=O)n1`, the GI50 was 1.22 µM and 0.897 µM; the TGI was 3.71 µM and 4.49 µM.
In the case of `CCCCCCCCCCCCCCCCCCOc1ccccc1CC(=O)OCC[N+](C)(C)C`, the GI50 was 1.37 µM and the TGI came to 3.05 µM.
The like results for `S=C(Nc1ccccc1)c1ccccn1` were, in that order, 45.3 µM and more than 100 µM.
The like results for `CCN(CC)c1ccc(/C=N/NC(=O)c2ccc(Nc3ccnc(C(F)(F)F)c3)cc2)c(O)c1` were, in that order, 0.227 µM and 0.956 µM.
Turning to `CCCCCCn1c(-c2ccc(C(=O)O/N=C(\N)c3ccc(OC)cc3)cc2)nc(-c2ccccc2)c1-c1ccccc1`, the GI50 is 1.75 µM and the TGI is 3.51 µM.
In the case of `CNC(=O)c1cc(Oc2ccc3nc(NC(=O)Nc4ccc(Cl)c(Cl)c4)sc3c2)ccn1`, the GI50 is 1.97 µM and the TGI was found to be 5.09 µM.
For the compound `COc1nccc(-c2c(-c3ccc(F)cc3)ncn2C2CCC(O)CC2)n1` (stereo unspecified), the GI50 was 21.6 µM and the TGI was more than 89.4 µM.
In the case of `N#C/C(=C\c1cn(-c2ccccc2)c2ccccc12)C(=O)O`, the GI50 was 50.7 µM and the TGI was more than 100 µM.
Consider `CN(C)c1cccc2[nH]c(-c3[nH]ncc3Nc3ccnc(N)n3)nc12`, for which the GI50 was 0.0145 µM and the TGI was 0.0422 µM.
The like results for `N#Cc1nc(-c2cccc(Br)c2)cc(-c2ccc(Nc3nc(N4CCCCC4)nc(N4CCCCC4)n3)cc2)c1N` were, in that order, 2.16 µM and 5.64 µM.
Take `O=c1cc/c(=N\Nc2ccccc2)c(=O)/c1=N/Nc1ccccc1`: the GI50 is more than 50 µM and the TGI was more than 50 µM.
Consider `CC1OC(O[C@@H]2C(O)C(CO)OC(O[C@H]3COC(O[C@H]4CC[C@]5(C)[C@H]6CC[C@]78OC[C@@]9(CC[C@](C)(C=O)C[C@H]97)[C@H](O)C[C@@]8(C)[C@]6(C)CC[C@H]5C4(C)C)[C@@H](OC4OC(CO)[C@@H](O)[C@@H](O)[C@@H]4O)[C@@H]3O)[C@H]2OC2OC[C@@H](O)[C@@H](O)[C@@H]2O)[C@@H](O)[C@@H](O)[C@H]1O` (stereo partly specified), for which the GI50 was 1.59 µM and the TGI was 3.28 µM.
For `COc1cc2c3c(n(CCCNC4CCCC4)c(=O)c2cc1OC)-c1cc2c(cc1C3=O)OCO2`, the GI50 was 5.6 µM and the TGI stood at 19.6 µM.
As for `Cc1cn(-c2cc(NC(=O)c3cncc(C#Cc4cnc5ccc(OCCCS(C)(=O)=O)nn45)c3)cc(C(F)(F)F)c2)cn1`, the GI50 is 2.2 µM and the TGI turned out to be 7.33 µM.
Take `C#Cc1cccc(NC(=O)Nc2ccc(NC(=O)CCl)cc2)c1`: the GI50 is 13.3 µM and the TGI came out at 32.1 µM.
As to `C=C1C(=O)O[C@H]2[C@H]1CC/C(COC(=O)NCCc1ccc(OC)cc1)=C\CC[C@@]1(C)O[C@@H]21`, the GI50 is 1.55 µM and the TGI worked out at 3.85 µM.
The like results for `Cc1sc2ncnc(Sc3nc4ccccc4[nH]3)c2c1C` were, in that order, 17.7 µM and 60.5 µM.
Take `Clc1cc(Cl)cc(N2N=C(c3cccc(Nc4ccncc4)c3)CC2c2ccccc2)c1` (stereo unspecified): the GI50 is 1.52 µM and the TGI was found to be 3.01 µM.
Regarding `CCN(CC)CCC(=O)Nc1cccc2c1C(=O)c1c(c(O)c3ccccc3c1O)C2=O`, the GI50 was more than 100 µM and the TGI is more than 100 µM.
As for `CC(C)(C)Cn1c(N)nc2ccc(-c3[nH]c(C(C)(C)C)nc3-c3ccc(F)cc3)nc21`, the GI50 is 3.1 µM and the TGI came to 16.8 µM.
The corresponding values for `COc1cc(C)cc2c1OC(c1ccccc1)CC2=O` (stereo unspecified) are more than 100 µM and more than 100 µM.
In the case of `FC(F)(F)c1ccc2c(c1)N(CCCN1CCN(C3CC3)CC1)c1ccccc1S2`, the GI50 was 3.84 µM and the TGI came out at 15.1 µM.
For the compound `CC(=O)OCC(=O)[C@@]1(O)[C@H](C)C[C@H]2[C@@H]3C=C(C)C4=Cc5c(cnn5-c5ccc(F)cc5)C[C@]4(C)[C@H]3[C@@H](O)C[C@@]21C`, the GI50 is 2.01 µM and the TGI was found to be 3.92 µM.
Turning to `Cc1ccc(NC(=O)c2ccnc(C(F)(F)F)c2)cc1-c1cc(OCCO)nc(N2CCOCC2)c1`, the GI50 is 1.82 µM and the TGI was found to be 7.09 µM.
In the case of `O=C(Oc1ccccc1)c1cc(O)c(O)c(O)c1`, the GI50 was 12.6 µM and the TGI turned out to be 67.5 µM.
The corresponding values for `Cn1cc(-c2cc3ncnc(Nc4ccc(NC(=O)Nc5cc(C(C)(C)C)on5)cc4)c3s2)cn1` are 0.92 µM and 4.75 µM.
As to `COC(=O)Nc1ccc2ccc3c(NC(=O)OC)ccc4ccc1c2c43` (tested in a mixture with another compound), the GI50 was 3.8 µM and the TGI was found to be 19.2 µM.
